From US9073945B2, “Alpha-IIb-beta-3 inhibitors and uses thereof” (THE ROCKEFELLER UNIVERSITY, priority 2006, dated 2015)
Positions of bridges follow the written chain, without caps; N, C: chain ends. Non-standard residues stand in square brackets, D forms with d. Residues, ends and D or L forms follow the SMILES beside them. hArg = N=C(N)NCCCC[C@H](N)C(=O)O; Mpa = O=C(O)CCS

How the values were obtained:
[1] = target: T1, purified αIIbβ3 (Homo sapiens, UniProt P05106+P08514); assay: Priming of fibrinogen binding to purified αIIbβ3; settings: eptifibatide 10 μM, RGDS 10 μM, Compounds 100 μM
T1 construct: purchased Enzyme Research Laboratories, South Bend, Ind
T1 sequence (P08514 32-887 limits assumed): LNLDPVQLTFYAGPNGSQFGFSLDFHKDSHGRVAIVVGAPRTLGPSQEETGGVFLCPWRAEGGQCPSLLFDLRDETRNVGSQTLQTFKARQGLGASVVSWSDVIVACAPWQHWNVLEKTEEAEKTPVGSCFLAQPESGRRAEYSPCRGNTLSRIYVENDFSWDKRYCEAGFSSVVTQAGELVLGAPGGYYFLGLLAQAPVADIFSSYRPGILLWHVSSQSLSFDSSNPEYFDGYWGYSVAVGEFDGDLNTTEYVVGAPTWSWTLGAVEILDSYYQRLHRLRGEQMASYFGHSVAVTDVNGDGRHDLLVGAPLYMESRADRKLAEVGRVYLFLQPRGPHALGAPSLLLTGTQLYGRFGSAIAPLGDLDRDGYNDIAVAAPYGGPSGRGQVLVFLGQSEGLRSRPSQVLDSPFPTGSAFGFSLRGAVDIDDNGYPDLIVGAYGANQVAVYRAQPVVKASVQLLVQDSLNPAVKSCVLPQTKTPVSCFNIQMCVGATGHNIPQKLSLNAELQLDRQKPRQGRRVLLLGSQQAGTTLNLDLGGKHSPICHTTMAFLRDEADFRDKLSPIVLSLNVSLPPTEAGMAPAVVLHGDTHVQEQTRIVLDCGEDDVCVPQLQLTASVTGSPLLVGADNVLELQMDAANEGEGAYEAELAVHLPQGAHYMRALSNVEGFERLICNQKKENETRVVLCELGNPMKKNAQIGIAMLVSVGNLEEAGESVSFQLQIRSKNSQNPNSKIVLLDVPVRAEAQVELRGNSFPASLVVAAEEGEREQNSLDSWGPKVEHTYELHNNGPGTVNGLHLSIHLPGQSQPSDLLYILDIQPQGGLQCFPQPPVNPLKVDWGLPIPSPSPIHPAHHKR
T1 sequence (P08514 891-1039 partner limits assumed): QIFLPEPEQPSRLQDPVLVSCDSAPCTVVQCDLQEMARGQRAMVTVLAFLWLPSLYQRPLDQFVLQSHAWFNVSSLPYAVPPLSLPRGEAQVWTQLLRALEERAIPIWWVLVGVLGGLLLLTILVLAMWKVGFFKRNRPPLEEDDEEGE
T1 sequence (P05106 27-788): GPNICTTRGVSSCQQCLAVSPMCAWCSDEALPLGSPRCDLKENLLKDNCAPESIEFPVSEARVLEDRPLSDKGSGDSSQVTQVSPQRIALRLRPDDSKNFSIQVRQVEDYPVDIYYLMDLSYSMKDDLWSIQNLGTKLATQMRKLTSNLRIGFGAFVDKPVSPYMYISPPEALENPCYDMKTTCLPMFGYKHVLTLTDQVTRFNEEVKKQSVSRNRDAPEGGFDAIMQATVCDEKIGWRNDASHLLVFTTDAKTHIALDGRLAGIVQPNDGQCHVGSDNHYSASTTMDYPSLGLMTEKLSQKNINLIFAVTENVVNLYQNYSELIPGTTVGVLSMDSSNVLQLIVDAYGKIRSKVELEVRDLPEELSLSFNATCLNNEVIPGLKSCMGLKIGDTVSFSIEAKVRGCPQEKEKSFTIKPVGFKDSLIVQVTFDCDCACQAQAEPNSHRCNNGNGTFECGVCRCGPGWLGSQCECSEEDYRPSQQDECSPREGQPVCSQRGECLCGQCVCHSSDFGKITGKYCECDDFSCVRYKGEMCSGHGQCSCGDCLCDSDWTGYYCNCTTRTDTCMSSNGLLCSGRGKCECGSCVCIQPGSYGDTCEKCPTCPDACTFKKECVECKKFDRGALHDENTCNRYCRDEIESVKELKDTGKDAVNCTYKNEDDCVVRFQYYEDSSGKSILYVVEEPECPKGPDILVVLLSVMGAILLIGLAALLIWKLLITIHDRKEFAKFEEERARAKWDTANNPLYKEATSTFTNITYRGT
Procedure: (§1) Fibrinogen Binding to Purified αIIbβ3. The anti-β3 mAb 7H2 (10 μg/ml) is adsorbed to polystyrene microtiter plate wells overnight at 4° C., and wells are then blocked with 3.5% BSA for 1 h at 22° C. Purified αIIbβ3 (Enzyme Research Laboratories, South Bend, Ind.) is diluted in buffer A (50 mM Tris/HCl, 100 mM NaCl, 1 mM CaCl2, 1 mM MgCl2, 1% BSA, 0.0035% Triton X-100) to 10 μg/ml, and is allowed to adhere to wells coated with mAb 7H2 for 2 h at 37° C. Wells are then washed 3 times with buffer A. Fibrinogen, prepared in buffer A (20 μg/ml) in the presence or absence of mAb AP5 (60 μg/ml), is incubated in plate wells for 2 h at 37° C. with or without the Compounds or control solutions. Wells are washed 3 times with buffer A and then incubated with a horseradish peroxidase-conjugated polyclonal anti-fibrinogen antibody (1:1,000 in buffer A; DAKO, Glostrup, Denmark) for 1 h at 22° C. Wells are washed 3 times, 200 μl of a peroxidase substrate [3,3′,5,5′-tetramethylbenzidine (TMB), Sigma-Aldrich] is added, the reaction is terminated after 30 min by acidification with 50 μl 0.5 M H2SO4, and absorbance is determined at 450 nm. For priming experiments the procedure is the same except: 1) αIIbβ3 is allowed to adhere in the presence of either eptifibatide (10 μM), RGDS (10 μM; Rockefeller University Proteomics Resource Center), the Compounds (100 μM), or DMSO (1%); 2) wells are washed 10 times after αIIbβ3 adhesion; and 3) absorbance is determined at 655 nm after 10 min.

[2] = system: αVβ3-expressing CS1 cells; assay: CS1 cell adhesion to vitronectin; format: cell-based; settings: mAbs 20 μg/ml, compound 100 μM; Mg2+
Procedure: (§2) Platelet and Cell Adhesion. Platelets are prepared from ACD-anticoagulated blood as previously described. Cells, either CS1 (αVβ3-expressing) or HEK293 (αIIbβ3-expressing) are separated from culture media by centrifugation at 200 g, 4 min. Cells are resuspended in HBMT containing 1 mM MgCl2 (CS1 cells) and/or 2 mM CaCl2 (HEK293 cells). Polystyrene 96-well microtiter plates (Nunc) are coated with either fibrinogen (50 μg/ml), vitronectin (5 μg/ml), or collagen (33 μg/ml, rat tail type 1, Becton Dickson) for 1 h, and blocked with HBMT for at least 1 h. Platelets and cells are treated with compounds or control solutions for 15 min at 37° C. before they are added to the microtiter wells. After adhering for 1 h at either 22° C. (platelets) or 37° C. (cells), non-adherent platelets or cells are removed by washing 3 times with HBMT containing the same ion composition as the buffer used for adhesion. Adherent platelets or cells are quantified by their endogenous acid phosphatase activity on p-nitrophenyl phosphate (pNPP) (1 mg/ml in 0.1 M sodium citrate, 0.1% Triton X-100, pH 5.4). In other experiments, 8-chambered glass coverslips (Nunc) are coated with collagen (33 μg/ml) for 1 h at 22° C. Washed platelets are allowed to adhere for 1 h at 22° C. and the coverslips are stained with the Alexa-488-conjugated β3-specific mAb 7H2. […]

[3] = target: T1, purified αIIbβ3; assay: Fibrinogen binding to purified αIIbβ3; settings: for effect of activating mAb AP5 on fibrinogen binding to purified αIIbβ3 in the presence of the substance: AP5 60 μg/ml
Procedure: as §1

[4] = target: T2, αIIbβ3-expressing HEK293 cells (Homo sapiens, UniProt P05106+P08514); assay: Fluorescent fibrinogen binding to HEK293 cells; format: cell-based; settings: AP5 60 μg/ml; n=3; read-out: IC50, AP5-induced fibrinogen binding to HEK293 cells
T2 construct: expressed in transfected cells; host or cells: HEK293
T2 sequence (P08514 32-887 limits assumed): as the sequence (P08514 32-887 limits assumed) above
T2 sequence (P08514 891-1039 partner limits assumed): as the sequence (P08514 891-1039 partner limits assumed) above
T2 sequence (P05106 27-788): as the sequence (P05106 27-788) above
Procedure: (§3) Fluorescent Fibrinogen Binding. Washed platelets at 250,000/μl or αIIbβ3-expressing HEK293 cells at 10×10^6/ml in HBMT with 2 mM Ca^2+/1 mM Mg^2+ are incubated with compounds or controls and 200 μg/ml fluorescent fibrinogen (Invitrogen) with or without 60 μg/ml of the activating mAb AP5 for 30 min at 22° C. in the dark. Unbound fibrinogen is removed by centrifugation at 1800 rpm for 3 min and the platelets are resuspended in HBMT before FACS analysis.

[5] = target: T3, αIIbβ3 (Homo sapiens, UniProt P05106+P08514); assay: LIBS-specific mAb binding to resting platelets (flow cytometry); format: cell-based; settings: compound 100 μM
T3 construct: endogenous in cells; host or cells: washed resting platelets from platelet-rich plasma
T3 sequence (P08514 32-887 limits assumed): as the sequence (P08514 32-887 limits assumed) above
T3 sequence (P08514 891-1039 partner limits assumed): as the sequence (P08514 891-1039 partner limits assumed) above
T3 sequence (P05106 27-788): as the sequence (P05106 27-788) above
Procedure: mAb Binding. PRP anticoagulated with ACD is centrifuged at 1200 g for 8 min and is resuspended in HBMT containing 2 mM Ca^2+, 1 mmMg^2+. Platelet count is adjusted to 250,000/μl. Platelets are incubated with the Compounds (100 μM), tirofiban (100 μM), EDTA (10 mM), or 10E5 (10 μg/ml) for 15 min, at 37° C. Samples are incubated with Fluorescently-labeled monoclonal antibodies (PMI-1, LIBS-1, AP5, 7H2, 7E3, or 10E5; Alexa-488-conjugated, Invitrogen) at 20 μl, 5 μg/ml final concentration for 30 min at room temperature in the dark before diluting 1:10 for analysis on a FACSCalibur flow cytometer (Becton Dickson). Antibody binding is reported as the geometric mean fluorescence intensity; nonspecific binding is determined by adding a 50-fold excess of unlabeled antibody before adding labeled antibody.

[6] = system: platelets; assay: Platelet aggregation in aggregometer; format: cell-based, human; settings: for IC50: Homo sapiens, Platelet
Procedure: (§4) Platelet Preparation from Peripheral Blood. After informed consent is obtained from healthy human donors who have not taken any medication known to inhibit platelet function for at least 7 days, peripheral venous blood is collected via a 19-gauge butterfly needle into tubes containing either a 10% volume of sodium citrate (3.8%), or a 15% volume of Acid-Citrate-Dextrose (ACD-A, 74.8 mM sodium citrate, 38 mM citric acid, 124 mM dextrose). Platelet-rich plasma (PRP) is prepared by centrifugation at 650 g for 4 minutes at 22° C. and is gently removed with a plastic pipette. Platelet-poor plasma (PPP) is prepared by further centrifugation of the remaining blood at 3000 g for 10 minutes at 22° C. Washed platelets (WP) are prepared by treating ACD-anticoagulated PRP with 1 μM PGE1, adding 0.10 vol ACD, and centrifuge at 1200 g for 8 min at 22° C. The platelet pellet is resuspended in HBMT. Platelet counts are determined with the automated particle counter (ADVIA 120 hematological analyzer Bayer).
Platelet Aggregation in Aggregometer. Citrated PRP is incubated with compounds or controls for 15 min 37° C. in 300-500 μl vols in glass aggregometer tubes. Agonists are added after 30 s equilibration in the aggregometer (Kowa) and light transmittance is measured for 8 min. Agonists include ADP, collagen (native type 1 collagen fibrils), restocetin, arachidonic acid, and thrombin receptor activating peptide [TRAP (SFLLRN)].

[7] = system: platelets in citrated PRP; assay: Platelet aggregation in 96-well plates (secondary screen); format: cell-based, human; settings: induced by 5 μM ADP; 16.6 μM compound
Procedure: as §4, with “The platelet pellet is resuspended in HBMT.” left out
Platelet Aggregation in 96-well Plates. […] A 66.6 μl sample of citrated PRP from volunteer blood donors is added to compound-containing wells, and plates are allowed to equilibrate to 37° C. in the plate reader (SpectraMax) for 10 minutes. […] Absorbance is measured at 563 nm every 10 seconds with shaking for 3 s between reads for 8 minutes. Percent aggregation is calculated as (AbsPRP−Abssample)/(AbsPRP−AbsPPP).

[8] = target: T4, HEK293 cells expressing αIIbβ3 (Homo sapiens, UniProt P05106+P08514); assay: HEK293 cell adhesion to fibrinogen; format: cell-based; settings: compound 100 μM, fibrinogen 50 μg/ml, 2 mM Ca2+/1 mM Mg2+, read-out: inhibition of HEK293 cell adhesion to immobilized fibrinogen
T4 construct: expressed in transfected cells; host or cells: HEK293
T4 sequence (P08514 32-887 limits assumed): as the sequence (P08514 32-887 limits assumed) above
T4 sequence (P08514 891-1039 partner limits assumed): as the sequence (P08514 891-1039 partner limits assumed) above
T4 sequence (P05106 27-788): as the sequence (P05106 27-788) above
Procedure: as §2

[9] = system: platelets; assay: Fluorescent fibrinogen binding to platelets; format: cell-based; settings: Homo sapiens, Platelet; AP5 60 μg/ml; read-out: IC50, fibrinogen binding to platelets induced by activating LIBS mAb AP5
Procedure: as §3

[10] = system: platelets in citrated whole blood; assay: Platelet adhesion under shear stress (cone and plate); format: cell-based, human; settings: preferred Compound 50 μM, tirofiban 10 μM; 1800 s^−1; n=3
Procedure: Platelet Adhesion Under Shear Stress. A cone and plate system (Diamed, Cressier, Switzerland) is used to assess the effect of the Compounds on platelet deposition under shear stress. 0.25 ml of citrated whole blood is incubated with nothing, DMSO (0.5%), the Compounds (50 μM), or tirofiban (10 μM) for 15 min at 22° C. and placed in polystyrene wells (16 mm diameter, Nunc). A constant uniform shear force of 1800 s^−1 was applied across the well using a teflon cone for 2 min at 22° C. Wells are washed with buffer, fixed with 1% paraformaldehyde, stained with Wright's Stain (Sigma-Aldrich), and analyzed for platelet adhesion using a 20× objective in an inverted microscope (IX51, Olympus, Center Valley, Pa.). Platelet adhesion is assessed by measuring the area occupied by platelets in each of four uniformly selected viewing areas in duplicate wells using image analysis software (SlideBook, Intelligent Imaging Innovations, Denver, Colo.).

Compound: CCc1nn2c(=O)cc(N3CCNCC3)nc2s1 [Preferred Compound, 2-ethyl-7-(piperazin-1-yl)-5H-[1,3,4]thiadiazolo-[3,2-a]pyrimidin-5-one]
- fibrinogen binding after transient exposure of αIIbβ3 (priming), compared to untreated αIIbβ3 [1]: does not increase
- CS1 cell adhesion to immobilized vitronectin [2]: adhere
- effect of activating mAb AP5 on fibrinogen binding to purified αIIbβ3 in the presence of the substance [3]: does not increase
- fibrinogen binding to purified αIIbβ3 in the presence of the substance ([3]; microtiter plates): blocked
- IC50 ([3]; microtiter plates, n=3): 1.6 ± 0.4 µM
- IC50 [4]: 21 ± 0.3 µM
- binding of β3 LIBS-specific mAb AP5 compared with untreated platelets [5]: do not differ significantly
- binding of β3 LIBS-specific mAb LIBS-1 compared with untreated platelets [5]: do not differ significantly
- mAb Binding (% of tirofiban), AP5 (β3) ([5]; resting washed platelets): 26 ± 5.9 % of tirofiban
- mAb Binding (% of tirofiban), LIBS-1 (β3) ([5]; resting washed platelets): 5.7 ± 6.3 % of tirofiban
- mAb Binding (% of tirofiban), PMI-1 (αIIb) ([5]; resting washed platelets): 44 ± 8.7 % of tirofiban
- mAb Binding (% of tirofiban), PMI-1 (αIIb) ([5]; resting washed platelets, listed as 2-ethyl-7-(piperazin-1-yl)-5H-[1,3,4]thiadiazolo-[3,2-a]pyrimidin-5-one): 44 % of tirofiban
- IC50 ([6]; induced by 5 μM ADP, read-out: IC50, aggregation of platelets in citrated PRP): 13 ± 5 µM
- IC50 ([6]; induced by 5 μM TRAP, n=3, read-out: IC50, aggregation of washed platelets): 3.4 ± 0.4 µM
- IC50 ([6]; induced by 5 μM TRAP, read-out: IC50, aggregation of platelets in citrated PRP): 29 ± 6 µM
- IC50 ([6]; induced by 1 mM arachidonic acid, read-out: IC50, aggregation of platelets in citrated PRP): 8.5 ± 5.7 µM
- platelet aggregation in PRP induced by collagen ([6]; compound 100 μM, collagen 2 μg/ml): completely inhibits
- later phase of ristocetin-induced aggregation of PRP ([6]; ristocetin 1.8 mg/ml, data not shown): does inhibit
- initial slope (initial wave) of ristocetin-induced agglutination/aggregation of PRP ([6]; ristocetin 1.8 mg/ml, mAb 6D1 20 μg/ml): does not inhibit
- reduction of the initial slope of aggregation [7]: 84%
- inhibition at 100 µM [8]: 53 ± 4%
- IC50 [9]: 29 ± 2 µM
- inhibition of platelet deposition under shear, area occupied by platelets vs DMSO [10]: 87±10%

Compound: RGDS
- fibrinogen binding after transient exposure of αIIbβ3 (priming), compared to untreated αIIbβ3 [1]: 130±7%

Compound: N=C(N)NCCCC[C@@H]1NC(=O)CCSSC[C@@H](C(N)=O)NC(=O)[C@@H]2CCCN2C(=O)[C@H](Cc2c[nH]c3ccccc23)NC(=O)[C@H](CC(=O)O)NC(=O)CNC1=O [eptifibatide] ([Mpa][hArg]GDWPC-NH2; disulfide 1-7)
- fibrinogen binding after transient exposure of αIIbβ3 (priming), compared to untreated αIIbβ3 [1]: 150±31%

Compound: CCCCS(=O)(=O)N[C@@H](Cc1ccc(OCCCCC2CCNCC2)cc1)C(=O)O [tirofiban, reference compound]
- effect of activating mAb AP5 on fibrinogen binding to purified αIIbβ3 in the presence of the substance [3]: does not increase
- fibrinogen binding to purified αIIbβ3 in the presence of the substance ([3]; microtiter plates): blocked
- inhibition of platelet deposition under shear, area occupied by platelets vs DMSO [10]: 99±1%
